Each structure is given as a SMILES string.

Here are results for 27 compounds from patent EP0591583B1, “Benzo (f) quinolinones as 5-alpha-reductase inhibitors” (ELI LILLY AND COMPANY, priority 1992, dated 1994).

In the first test the target is T1, 5α-reductase (Homo sapiens, UniProt P18405).
T1 construct: host or cells: Hs68 human genital skin fibroblasts
T1 sequence (P18405 1-259): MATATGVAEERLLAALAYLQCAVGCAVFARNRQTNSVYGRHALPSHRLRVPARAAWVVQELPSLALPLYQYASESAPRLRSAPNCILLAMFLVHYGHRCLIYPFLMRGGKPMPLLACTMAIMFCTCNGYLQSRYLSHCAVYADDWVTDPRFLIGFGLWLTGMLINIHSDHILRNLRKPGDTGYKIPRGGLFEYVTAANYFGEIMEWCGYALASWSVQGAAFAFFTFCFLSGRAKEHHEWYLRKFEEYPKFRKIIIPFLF
The test can be described thus: 5α-Reductase activity in Hs68 human genital skin fibroblasts (conversion of labeled testosterone, TLC analysis). Type of test: cell-based. As to conditions: Hs68, test compound 0.316 µM; Hs68 cells; substrate testosterone 12 µM; incubated four hours; read-out: % Inhibition. The procedure: Cell Culture: 5α-Reductase activity was measured using Hs68 human genital skin fibroblasts which were originally purchased from the American Type Culture Collection (Rockville, MD). The cells were grown in Dulbecco's Modified Eagle's Medium (DMEM) plus 10% stripped fetal bovine serum which was supplemented with amphotericin B ([…]) and gentamicin ([…]) (GIBCO, Grand Island, NY). The serum was stripped of endogenous steroids by incubation with dextran-coated charcoal prior to its addition to the media. The cells were maintained at 37°C in an atmosphere of 95% air, 5% CO2 and were passaged every 7-10 days by exposure to a trypsin-EDTA solution (0.025% trypsin, 0.265 mM EDTA). Prior to the assay the Hs68 cells were harvested and plated in Falcon 6-well plates (Becton Dickinson Labware, Lincoln Park, NJ) at a density of 6 x 10^4 cells per well. The cells were allowed to grow for 4-5 days or until they reached approximately 80% confluence.
Assay Method I: The substrate was prepared by dissolving unlabeled testosterone (Sigma Chemical Co., St. Louis, MO) in absolute ethanol followed by the addition of [7-^3H (N)]-testosterone (23.3 Ci/mmole, New England Nuclear, Boston, MA). The steroid solution was taken to dryness under a stream of nitrogen and then reconstituted in media.
Assay Method II: The substrate used for this method was [^14C]-testosterone (50 mCi/mmol) (New England Nuclear, Boston, MA). An aliquot of the substrate was taken to dryness under a stream of nitrogen. After the addition of 30 µl of ethanol, the testosterone was dissolved in an appropriate volume of media.
Sample Preparation: The test compounds were brought up in absolute ethanol in order to achieve the desired concentration. Subsequent dilutions of the test compounds with media were performed by the Biomek 1000 Automated Laboratory Workstation (Beckman Instruments, Palo Alto, CA). The existing media in the sample wells was aspirated and replaced with fresh media. Test compound was then added to the wells followed by the addition of 0.5 ml of substrate. The volume of the incubation mixture was maintained at 2.0 ml. The final substrate concentration was 12 µM. The concentration of the test compounds ranged from 0.001-150 µM. An additional three wells (background) containing media and substrate but no cells were also included to account for the non-enzymatic metabolism of the substrate. The plates were returned to the incubator and incubated for four hours.
At the end of the incubation the media was collected and transferred to an extraction tube containing 5 ml of toluene-ethanol (9:1), to which has been added 20-250 µg each of unlabeled carrier steroids (estriol, estradiol, estrone, 5α-androstan-3α,17β-diol, 5α-androstan-3β,17β-diol, 4-androstene-3,17-dione, 5α-androstan-3,17-dione, testosterone, and 5α-dihydrotestosterone) (Steraloids, Inc., Wilton, NH). In the case of Assay Method I the extraction tube also contained 1,000 and 10,000 dpm of [4-^14C]-dihydrotestosterone (50-60 mCi/mmol) and [4-^14C]-testosterone (50 mCi/mmol) (New England Nuclear, Boston, MA), respectively. The [^14C]-steroids were included as recovery standards to quantify procedural losses. A small amount of NaCl was also added to the extraction tubes to prevent foaming. The samples were vortexed for approximately 30 seconds and then centrifuged for 10 minutes at 500 x g. The organic phase was collected and the samples taken to dryness, redissolved in dichloromethane-methanol (9:1) and were analyzed by thin layer chromatography using one of the methods described below.
Chromatography Method I (two-dimensional): The extracted samples were appled to silica gel 60F254, 0.25 mm thick, thin layer chromatography plates (EM Science, Cincinnati, OH). The plates were developed in the first dimension with a solvent system containing dichloromethane-ethyl acetate-methanol-acetic acid (160:38:1.5:0.5, Mallinckrodt Inc., Paris, KY).
For `CCOC(=O)C=Cc1ccc2c(c1)CCC1C2CCC(=O)N1C` (racemic) [Example 16, trans-dl-8-ethoxycarbonylethenediyl-4-methyl-1,2,3,4,4a,5,6,10b-octahydrobenzo[f]quinolin-3-one], the inhibition (usually the drop in the measured response relative to a control, in per cent) at 0.316 µM worked out at 80%.
Still for that read-out and setting: with `CN1C(=O)CCC2c3ccc(C(C)(C)C)cc3CCC21` (racemic) [Example 31, trans-dl-8-t-butyl-4-methyl-1,2,3,4,5,6,10b-octahydrobenzo[f]quinolin-3-one] the figure was 82.1%.
As to `CN1C(=O)CC[C@@H]2c3cc(N)ccc3CC[C@H]21` (racemic) [Example 48, trans-dl-9-amino-4-methyl-1,2,3,4,4a,5,6,10b-octahydrobenzo[f]quinolin-3-one], the inhibition at 0.316 µM is 4.36%.
The same measure, in the same setting: under `O=C1CC=C2c3ccc(Cl)cc3CCC2N1` (racemic) [Example 50B, dl-8-chloro-2,3,4,4a,5,6-hexahydrobenzo[f]quinolin-3-one] stands 84%; under `CN1C(=O)CC[C@@H]2c3ccc(-c4ccccc4)cc3CC[C@H]21` (racemic) [Example 56, trans-dl-8-phenyl-4-methyl-1,2,3,4,4a,5,6,10b-octahydrobenzo[f]quinolin-3-one], 74.8%; under `CCCCN1C(=O)CC[C@@]2(C)c3ccccc3CC[C@H]12` (relative stereo) [Example 43, trans-4-n-butyl-10b-methyl-1,2,3,4,4a,5,6,10b-octahydrobenzo[f]quinolin-3-one], 11.9%.
The same measure, in the same setting: under `CC(C)(C)c1ccc2c(c1)CCC1NC(=O)CCC21` (racemic) [Example 30, trans-dl-8-t-butyl-1,2,3,4,4a,5,6,10b-octahydrobenzo[f]quinolin-3-one] stands 38.5%; under `COC(=O)C=Cc1ccc2c(c1)CCC1C2CCC(=O)N1C` (racemic) [Example 23, trans-dl-8-methoxycarbonylethenediyl-4-methyl-1,2,3,4,4a,5,6,10b-octahydrobenzo[f]quinolin-3-one], 76.5%.
Regarding `CCOC(=O)c1ccc2c(c1)CC[C@@H]1[C@@H]2CCC(=O)N1C` (racemic) [Example 58, trans-dl-8-ethoxycarbonyl-4-methyl-1,2,3,4,4a,5,6,10b-octahydrobenzo[f]quinolin-3-one], the inhibition at 0.316 µM is 65.7%.
On the same count and under the same terms, under `CCOC(=O)CCc1ccc2c(c1)CCC1C2CCC(=O)N1C` (racemic) [Example 22, trans-dl-8-ethoxycarbonylethanediyl-4-methyl-1,2,3,4,4a,5,6,10b-octahydrobenzo[f]quinolin-3-one] stands 40.7%; under `C[C@]12C=CC(=O)N[C@@H]1CCc1cc(Cl)ccc12` [Example 61, (R) (+)-trans-8-chloro-10b-methyl-3,4,4a,5,6,10b-hexahydrobenzo[f]quinolin-3-one], 61.5%; under `C[C@@H]1C[C@@H]2c3ccc(Cl)cc3C=C[C@H]2N(C)C1=O` (racemic) [Example 54, trans-dl-8-chloro-2-a-methyl-4-methyl-1,2,3,4,4a,10b-hexahydrobenzo[f]quinolin-3-one], 73.8%.
Still for that read-out and setting: with `C=Cc1ccc2c(c1)CC[C@@H]1[C@@H]2CCC(=O)N1C` (racemic) [Example 57, trans-dl-8-vinyl-4-methyl-1,2,3,4,4a,5,6,10b-octahydrobenzo[f]quinolin-3-one] the figure was 66.6%.
In the case of `CCN1C(=O)CC[C@@]2(C)c3ccccc3CC[C@H]12` (relative stereo) [Example 42, trans-4-ethyl-10b-methyl-1,2,3,4,4a,5,6,10b-octahydrobenzo[f]quinolin-3-one], the inhibition at 0.316 µM came out at 10.9%.
On the same count and under the same terms, under `CC1(C)CC2NC(=O)CCC2c2ccc(Br)cc21` (racemic) [Example 27, trans-dl-8-bromo-6,6-dimethyl-1,2,3,4,4a,5,6,10b-octahydrobenzo[f]quinolin-3-one] stands 44.7%.

Still in this test, the particulars now being: Hs68, test compound 1.00 µM; Hs68 cells; substrate testosterone 12 µM; incubated four hours.
In turn, `CN1C(=O)CC[C@@H]2c3ccc(Br)cc3CC[C@H]21` (racemic) [Example 1A, trans-dl-8-bromo-4-methyl-1,2,3,4,4a,5,6,10b-octahydrobenzo[f]quinolin-3-one] displayed an inhibition at 1 µM of 98%.
The same measure, in the same setting: under `CN1C(=O)CCC2(C)c3ccc(Cl)cc3CCC12` (racemic) [Example 34, trans-dl-8-chloro-4,10b-di-methyl-1,2,3,4,4a,5,6,10b-octahydrobenzo[f]-quinolin-3-one] stands 94.2%.

Still in this test, the particulars now being: Hs68, test compound 1.00 µM; Hs68 cells; substrate testosterone 12 µM; incubated four hours; read-out: % Inhibition.
In the case of `CN1C(=O)C=C[C@@H]2c3ccc(Br)cc3CC[C@H]21` (racemic) [Example 51, trans-dl-8-bromo-4-methyl-3,4,4a,5,6,10b-hexahydrobenzo[f]quinolin-3-one], the inhibition at 1 µM was determined as 95.1%.
Still for that read-out and setting: with `Cc1ccc2c(c1)CCC1NC(=O)CCC21` (racemic) [Example 20, trans-dl-8-methyl-1,2,3,4,4a,5,6,10b-octahydrobenzo[f]quinolin-3-one] the figure was 86.6%; with `COc1ccc2c(c1)CCC1C2CCC(=O)N1C` (racemic) [Example 19, trans-dl-8-methoxy-4-methyl-1,2,3,4,4a,5,6,10b-octahydrobenzo[f]quinolin-3-one], 93.2%.
On the same count and under the same terms, under `O=C1CCC2c3ccccc3CCC2N1` (racemic) [Example 21, trans-dl-1,2,3,4,4a,5,6,10b-octahydrobenzo[f]quinolin-3-one] stands 100%; under `CN1C(=O)CC[C@@H]2c3cc(Cl)c(Cl)cc3CC[C@H]21` (racemic) [Example 5, trans-dl-8,9-dichloro-4-methyl-1,2,3,4,4a,5,6,10b-octahydrobenzo[f]quinolin-3-one], 100%.

The test is the same for the next values; noted with them: Hs68, test compound 15.00 µM; Hs68 cells; substrate testosterone 12 µM; incubated four hours.
For the compound `O=C1CCC2c3ccccc3CCC2N1` (racemic) [Example 14, cis-dl-1,2,3,4,4a,5,6,10b-octa-hydrobenzo[f]quinolin-3-one], the inhibition at 15 µM is 31.7%.

Staying with this test, now noted: Hs68, test compound 150.00 µM; Hs68 cells; substrate testosterone 12 µM; incubated four hours.
Compound `C[C@]12CCC(=O)N[C@@H]1CCc1ccccc12` (racemic) [Example 36, trans-dl-10b-methyl-1,2,3,4,4a,5,6,10b-octahydrobenzo[f]quinolin-3-one] registered an inhibition at 150 µM of 43.9%.

Staying with this test, now noted: test compound 0.316 µM; Hs68 cells; substrate testosterone 12 µM; incubated four hours.
For `CC1CC2c3ccc(Cl)cc3CCC2N(C)C1=O` (racemic) [Example 26A, trans-dl-8-chloro-2-(α-methyl)-4-methyl-1,2,3,4,4a,5,6,10b-octahydrobenzo[f]quinolin-3-one], the % Inhibition – broadly, the change of the read-out against control, counted positive when it falls – was 82.56%.

The test is the same for the next values; noted with them: test compound 0.316 µM; Hs68 cells; substrate testosterone 12 µM; incubated four hours; read-out: % Inhibition.
Take `COc1ccc(CN2C(=O)CC[C@]3(C)c4ccc(Cl)cc4CC[C@@H]23)cc1` [Example 44]: the inhibition at 0.316 µM is 5.7%.

Staying with this test, now noted: test compound 1.00 µM; Hs68 cells; substrate testosterone 12 µM; incubated four hours; read-out: % Inhibition.
Turning to `CN1C(=O)CC[C@]2(C)c3ccccc3CC[C@@H]12` (stereo in doubt) [Example 37, trans-dl-4,10b-dimethyl-1,2,3,4,4a,5,6,10b-octahydrobenzo[f]quinolin-3-one], the inhibition at 1 µM came to 40%.
